Measured values published in patent US11065296B2, “Antimicrobial peptide, its analog and use” (City University of Hong Kong, priority 2018, dated 2021).
Peptide text beside a SMILES is read from it.

Key:
[1] = system: Streptococcus pyogenes ATCC 14289; type: cell-based
Experimental: (§5) MIC denotes the lowest concentration of an antimicrobial agent that can inhibit the growth of bacteria after overnight incubation.
(§6) Bacteria were grown in their respective media (Table 2 above) overnight at 37° C. or room temperature with constant shaking and then diluted to 10^6 CFU/ml in their respective medium. Stock solutions of peptides at 0.68 mM were prepared in distilled water. Bacteria and peptide were incubated (50 μl: 50 μl) to make the final peptide concentrations (0.68, 3.4, 6.8, 13.7, 34.1, 68.3, 136.5 μM) in a 96-microtitre plate and incubated for 24 h with constant shaking. […] Absorbance at 600 nm was detected every 3 h up to 24 h to obtain the growth curves. The minimal inhibition concentration (MIC) was defined as the lowest concentration of an antimicrobial agent that could inhibit the growth of bacteria after overnight incubation.

[2] = system: Methicillin-resistant S. aureus ATCC BAA-41; type: cell-based
Experimental: as §5, §6

E. tarda [3] = assay: Quantitative proteomic analysis of AMP-treated bacteria; type: cell-based; details: 6.8 μM, 1 hr
Experimental: Bacteria with or without AMP treatment for 1 hr at 6.8 μM were washed and lysed in 8 M of urea for 2 hrs. The lysate was then reduced in 10 mM of dithiothreitol (DTT) in 50 mM of ammonium bicarbonate (30 min at room temperature) and alkylated in 50 mM of […] (IAA) in 50 mM of ammonium bio-carbonate (20 min at room temperature). The samples were diluted 8 times with ammonium bicarbonate (50 mM, pH 8.0) so that the final concentration of urea was 1 M, followed by 2 μg of trypsin (Roche, Mannheim, Germany) for digestion. The mixtures were then incubated overnight at 37° C. and dried in a vacuum centrifuge (Eppendorf Concentrator plus). The peptides were dissolved in 20 μl of 0.1% trifluoroacetic acid (TFA), followed by ZipTip (Millipore, Billerica, Mass., USA) purification that was carried out in accordance with the manufacturer's instructions.
Mass spectrometry (MS) data were collected on an Orbitrap Fusion mass spectrometer coupled on-line with a nanoUPLC EASY-LC-1000 liquid chromatography system (ThermoFisher Scientific™, San Jose, Calif.). The peptides were eluted by using a microcapillary column with 50 cm×75 μm ID, PepMap C18, 2 μm particles (ThermoFisher Scientific™) with 2 to 80% acetonitrile in 0.1% formic acid at a flow rate of ˜350 nL/min for 120 min of gradient. They were ionized through electrospray ionization (positive mode 2.1 kV), and survey scans of peptide precursors from 350 to 1550 m/z were performed at a resolution of 120 K at 200 m/z. Tandem MS was performed by isolation at 1.2 Th with the quadrupole component, fragmentation with normalized collision energy of 35%, and rapid scan MS analysis in the ion trap. The MS2 ion count target was set to 10E4 and the maximum injection time was 250 ms. Only precursors with a charge state of 2-7 were fragmented for the MS2 analysis. The dynamic exclusion duration was set to 60 s with a 10 ppm of low and high mass tolerance around the selected precursor and its isotopes. The instrument was run in data dependent mode by using Orbitrap and an ion trap with […] cycles.
The raw data were analyzed by using Proteome Discoverer (Version 1.4.0.288. Thermo Fisher Scientific). The MS/MS spectra were searched with the Mascot search engine against the NCBI bacteria database 2014 (with 29,574 sequence entries). The peptides were generated from a Lys-C and tryptic digestion and the precursor mass tolerance was set as 25 ppm, and 0.6 Da for fragment mass tolerances. The oxidation of methionine and deamidation of N, Q were set as the dynamic modification, and the carbamidomethylation of cysteine-C as the static modification. The peptide spectral matches (PSMs) were validated by using a percolator based on q-values at a 1% false discovery rate (FDR). For protein identification, a high-confidence database search with a peptide target FDR (strict) of 0.1%, and target FDR (relaxed) 0.5% and ranked 1 peptides were used for peptide filtering. Identified peptides were grouped into individual protein clusters by scaffolding.
Peptide quantitation was carried out by using Progenesis LC-MS (version 4.1, Nonlinear) and as described in Babaei, F. et al. J. Proteome Res. Eversion, (2013). […] Following a statistical analysis, processing was carried out by using transformed “log-like” […] calculations of all the detected features. The total cumulative abundance was calculated by summing the abundance of all peptides that belonged to a respective protein. […]

CpxR = assay: Quantitative real-time PCR; type: cell-based; details: E. tarda
Text: (§1) Results are expressed as 2^(−Delta Delta C (T)). […] Results are expressed as 2^(−Delta Delta C (T)).
(§2) Each group has 6 biological replicates. […] Gene-specific primers were designed with Primer-BLAST (NCBI).

RpoE = assay: Quantitative real-time PCR; type: cell-based; details: E. tarda, 6.8 μM, 1 hr
Text: as §1, §2

[4] = Toxicity in adult Medaka fish, intraperitoneal injection; type: in vivo; details: intraperitoneally injected with 1 μg, up to 14 days
Experimental: (§3) FIG. 11A is a plot showing the effect of Peptide A on viability of cultured mammalian cells, incubated for 48 h in the presence of Peptide A at different concentrations (μg/ml), as determined by MTT assay. Cell viability represented as peptide treated cell numbers over medium-only control. Statistically significant difference as compared to controls (*: p<0.05, **: p<0.01, n=4). FIG. 11B is a plot showing the ability of Peptide A to protect medaka from lethal challenge of E. tarda ([…]). Medaka was injected with 1 μl of Peptide A (0.68 mM), with 1 μl of E. tarda (10^7 CFU/ml) and Peptide A (0.68 mM) mixture, or with E. tarda alone (1 μl of E. tarda:10^7 CFU/ml). […] 20 fish per group. Log-rank (Mantel-Cox) test was applied for the comparison of survival curves (**: p<0.01).
(§4) The efficacy of the synthesized AMP to protect medaka against infection was characterized using host resistance assays with intraperitoneal (i.p.) injection of bacteria using a micro-injection machine (PV820 Pneumatic PicoPump). […] The number of dead fish was counted on a daily basis until two weeks after the injections.

E. tarda [5] = assay: Host resistance assay, Experiment One: co-injection of bacteria and peptide; type: in vivo, Medaka; details: co-injected with Peptide A (0.68 mM, 1 μl) and E. tarda
Experimental: as §3, §4

CC[C@H](C)[C@H](N)C(=O)N[C@@H](CCCNC(=N)N)C(=O)N[C@H](C(=O)N[C@H](C(=O)N[C@@H](CC(C)C)C(=O)N[C@@H](CCCNC(=N)N)C(=O)N[C@@H](C)C(=O)N[C@@H](CCC(N)=O)C(=O)NCC(=O)N[C@@H](C)C(=O)N[C@@H](CC(C)C)C(=O)N[C@@H](CCCCN)C(=O)N[C@H](C(=O)O)[C@@H](C)CC)[C@@H](C)CC)[C@@H](C)CC [Peptide A, IRIILRAQGALKI] (H-IRIILRAQGALKI-OH; N-terminus and C-terminus assumed)
MICs [1]: 34.1 µM
MICs [2]: 21.8 µM
expression of CPX two component pathway proteins DsbC, PpiA and FkpA (E. tarda [3]): down-regulated
expression of DegQ, RpsO and YfiO (downstream proteins of the RpoE pathway) (E. tarda [3]): up-regulation
expression of Peptidyl-prolyl isomerase family members PpiA, PpiB, FkpA and SurA (E. tarda [3]): highly suppressed
expression of proteins involved in outer membrane assembly, peptidoglycan synthesis, and metal ion binding (E. tarda [3]): induced
proteins differentially expressed (at least one-fold difference) of 251 high confidence proteins (E. tarda [3]): 74
CpxR mRNA expression (CpxR; Peptide A 6.8 μM, 1 hr): significantly reduced
CpxR expression induced by ampicillin (CpxR; Peptide A+Ampicillin (3.4 μM; 71.5 μM), 1 hour): revert the induction of CpxR expression
RpoE mRNA expression (RpoE): significantly induced
adverse effect [4]: no adverse effect
medaka survival rate (E. tarda [5]): 80%
